Measured values: PubChem BioAssay AID328 (DTP/NCI, 2004)
Values joined by “and” are separate entries in the source; they are usually repeats but may differ in a detail not shown here. Equal entries are not always repeated. Toxic doses and inconclusive results are not listed.

Tested on: BDF1 mice, P388 leukemia ip, median survival T/C
Assay: NCI In Vivo Anticancer Drug Screen. Data for tumor model P388 Leukemia (intraperitoneal) in B6D2F1 (BDF1) mice
Conditions: endpoint: median survival time, vehicle: saline, higher = longer survival
Method in brief: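 Vehicle-dosed animals serve as the reference; survival of compound-dosed, tumour-implanted mice is divided by it.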

For Nc1ncnc2c1ccn2C1OC(CO)C(O)C1O (stereo not drawn), the T/C (dose: 0.19 mg/kg/injection, schedule: Q03DX005 (ip)) was 100 % of control, the T/C (dose: 0.25 mg/kg/injection, schedule: Q02DX005 (ip)) was 108 % of control and the T/C (dose: 0.25 mg/kg/injection, schedule: Q#A X002 (ip)) was 108 % of control. For the same compound, the T/C (dose: 0.31 mg/kg/injection, schedule: Q01DX010 (ip)) was 122 % of control, the T/C (dose: 0.38 mg/kg/injection, schedule: Q03DX005 (ip)) was 104 % of control and the T/C (dose: 0.5 mg/kg/injection, schedule: Q01DX006 (iv)) was 95 % of control. The T/C (dose: 0.5 mg/kg/injection, schedule: Q01DX010 (oral)) was 109 % of control, the T/C (dose: 0.5 mg/kg/injection, schedule: Q02DX004 (im)) was 104 % of control and the T/C (dose: 0.5 mg/kg/injection, schedule: Q02DX005 (ip)) was 112 % of control. The T/C (dose: 0.5 mg/kg/injection, schedule: Q04DX003 (ip)) was 112 % of control, the T/C (dose: 0.5 mg/kg/injection, schedule: Q07DX002 (ip)) was 112 % of control and the T/C (dose: 0.5 mg/kg/injection, schedule: Q#A X002 (ip)) was 112 % of control. For the same compound, the T/C (dose: 0.75 mg/kg/injection, schedule: Q03DX005 (ip)) was 118 % of control, the T/C (dose: 1.0 mg/kg/injection, schedule: Q01DX001 (ip)) was 108 % of control and the T/C (dose: 1.0 mg/kg/injection, schedule: Q01DX006 (iv)) was 95 % of control. For the same compound, the T/C (dose: 1.0 mg/kg/injection, schedule: Q01DX010 (ip)) was 150 % of control, the T/C (dose: 1.0 mg/kg/injection, schedule: Q01DX010 (oral)) was 100 % of control and the T/C (dose: 1.0 mg/kg/injection, schedule: Q01DX010 (sc)) was 91 % of control and 104 % of control. The T/C (dose: 1.0 mg/kg/injection, schedule: Q02DX004 (im)) was 91 % of control, the T/C (dose: 1.0 mg/kg/injection, schedule: Q04DX003 (ip)) was 116 % of control and the T/C (dose: 1.0 mg/kg/injection, schedule: Q07DX002 (ip)) was 116 % of control. For the same compound, the T/C (dose: 1.5 mg/kg/injection, schedule: Q03DX005 (ip)) was 154 % of control, the T/C (dose: 1.5 mg/kg/injection, schedule: Q03DX010 (ip)) was 172 % of control and the T/C (dose: 1.75 mg/kg/injection, schedule: Q07DX002 (ip)) was 150 % of control. The T/C (dose: 2.0 mg/kg/injection, schedule: Q01DX001 (ip)) was 116 % of control, the T/C (dose: 2.0 mg/kg/injection, schedule: Q01DX006 (iv)) was 91 % of control and the T/C (dose: 2.0 mg/kg/injection, schedule: Q01DX010 (im)) was 104 % of control. For the same compound, the T/C (dose: 2.0 mg/kg/injection, schedule: Q01DX010 (ip)) was 108 % of control, the T/C (dose: 2.0 mg/kg/injection, schedule: Q01DX010 (oral)) was 100 % of control and the T/C (dose: 2.0 mg/kg/injection, schedule: Q01DX010 (sc)) was 100 % of control and 113 % of control. For the same compound, the T/C (dose: 2.0 mg/kg/injection, schedule: Q02DX004 (im)) was 100 % of control, the T/C (dose: 2.0 mg/kg/injection, schedule: Q04DX003 (ip)) was 120 % of control and the T/C (dose: 2.0 mg/kg/injection, schedule: Q07DX002 (ip)) was 116 % of control. The T/C (dose: 2.0 mg/kg/injection, schedule: Q#A X002 (ip)) was 95 % of control, the T/C (dose: 3.0 mg/kg/injection, schedule: Q03DX010 (ip)) was 159 % of control and the T/C (dose: 4.0 mg/kg/injection, schedule: Q01DX010 (im)) was 104 % of control. The T/C (dose: 4.0 mg/kg/injection, schedule: Q01DX010 (sc)) was 112 % of control and 113 % of control, the T/C (dose: 4.0 mg/kg/injection, schedule: Q02DX004 (im)) was 100 % of control and the T/C (dose: 4.0 mg/kg/injection, schedule: Q04DX003 (ip)) was 100 % of control. For the same compound, the T/C (dose: 4.0 mg/kg/injection, schedule: Q07DX002 (ip)) was 116 % of control, the T/C (dose: 7.0 mg/kg/injection, schedule: Q01DX001 (ip)) was 150 % of control and the T/C (dose: 8.0 mg/kg/injection, schedule: Q01DX001 (oral)) was 92 % of control. For the same compound, the T/C (dose: 8.0 mg/kg/injection, schedule: Q01DX010 (im)) was 150 % of control, the T/C (dose: 8.0 mg/kg/injection, schedule: Q01DX010 (oral)) was 91 % of control and the T/C (dose: 8.0 mg/kg/injection, schedule: Q01DX010 (sc)) was 118 % of control. The T/C (dose: 16.0 mg/kg/injection, schedule: Q01DX001 (oral)) was 92 % of control, the T/C (dose: 28.0 mg/kg/injection, schedule: Q01DX001 (ip)) was 118 % of control and the T/C (dose: 31.5 mg/kg/injection, schedule: Q#A X020 (ip)) was 104 % of control. The T/C (dose: 62.5 mg/kg/injection, schedule: Q#A X020 (ip)) was 109 % of control, the T/C (dose: 125.0 mg/kg/injection, schedule: Q#A X020 (ip)) was 118 % of control and the T/C (dose: 63.0 micrograms/kg/injection, schedule: Q01DX010 (ip)) was 109 % of control. The T/C (dose: 125.0 micrograms/kg/injection, schedule: Q01DX010 (ip)) was 104 % of control and the T/C (dose: 250.0 micrograms/kg/injection, schedule: Q01DX010 (ip)) was 104 % of control.
